The nature of the assay: Scintillation Proximity Assay (SPA): Protocol 2: Compounds contained herein were evaluated for their ability to inhibit the methyltransferase activity of EZH2 within the PRC2 complex. Human PRC2 complex was prepared by co-expressing each of the 5 member proteins (FLAG-EZH2, EED, SUZ12, RbAp48, AEBP2) in Sf9 cells followed by co-purification. Enzyme activity was measured in a scintillation proximity assay (SPA) where a tritiated methyl group is transferred from 3H-SAM to a lysine residue on a biotinylated, unmethylated peptide substrate derived from histone H3. The peptides were captured on streptavidin-coated SPA beads and the resulting signal was read on a ViewLux plate reader.Part A. Compound Preparation 4. Prepare 10 mM stock of compounds from solid in 100% DMSO. 5. Set up an 11-point serial dilution (1:4 dilution, top concentration 10 mM) in 100% DMSO for each test compound in a 384 well plate leaving columns 6 and 18 for DMSO controls. 6. Dispense 10 nL of compound from the dilution plate into reaction plates (Corning, 384-well polystyrene NBS, Cat#3673). Percent inhibition was calculated relative to the DMSO control for each compound concentration and the resulting values were fit using standard IC50 fitting parameters within the ABASE data fitting software package. The assay is classed as biochemical.

These results are taken from ChEMBL document CHEMBL5725267, “Enhancer of zeste homolog 2 inhibitors” (2016).

pIC50: −log10 of the molar value.

Consider `C/C=C(\CCCN1CCC(N(C)C)CC1)c1scc(C(=O)NCc2c(C)cc(C)[nH]c2=O)c1C`, for which the pIC50 (usually the negative decadic logarithm of the IC50, by convention in mol/L) is 6.70.
With `C/C=C(/c1scc(C(=O)NCc2c(C)cc(C)[nH]c2=O)c1C)[C@H]1CC[C@H](NC(=O)OC(C)(C)C)CC1` the figure was 7.00; with `C/C=C(\CCCN1CCN(C)CC1)c1scc(C(=O)NCc2c(C)cc(C)[nH]c2=O)c1C`, 6.60; with `C/C=C(\CCN1CCOCC1)c1scc(C(=O)NCc2c(C)cc(C)[nH]c2=O)c1C`, 6.00.
